Results as given in patent US20210244704A1, “Cabazitaxel in mCRPC Patients Previously Treated with Docetaxel and Who Failed a Prior androgen signaling targeted inhibitor Agent” (SANOFI MATURE IP, priority 2019, published 2021).
Marks after values point to notes of the source that are not given here.

Test system: HRQL of mCRPC patients
Assay: Same clinical study: health-related quality of life, FACT-P questionnaire
Type: in vivo, human
Procedure: Pain response was defined as a decrease≥30% from baseline in BPI-SF pain intensity score with no increased analgesic use. HRQL was assessed using the Functional Assessment of Cancer Therapy-Prostate (FACT-P) questionnaire. Pain intensity was defined using item 3 of the validated Brief Pain Inventory-Short Form (BPI-SF), which rates pain at its worst in the last 24 hours on a scale of 0 (no pain) to 10 (worst imaginable pain). Analgesic consumption was reported by local investigators and coded by the World Health Organization's analgesic ladder (0=no analgesic; 1=non-opioid analgesics; 2=opioid analgesics for moderate pain; 3=opioids for severe pain). […] A clinically meaningful improvement or deterioration of total FACT-P score was defined as a difference of ±10 points from baseline. Clinically meaningful changes in HRQL and pain response were confirmed at two consecutive evaluations≥3 weeks apart during the on-treatment period. Survival curves were generated by Kaplan-Meier estimates.
Time to deterioration was defined on two consecutive evaluations, ≥3 weeks apart as follows: • decrease of ≥10 points from baseline for FACT-P total score • decrease of ≥3 points from baseline for physical, social, emotional and functional well-being • decrease of ≥2 points from baseline for the pain PCS subscale • decrease of ≥9 points from baseline for FACT-G total and FACT-P TOI subscales
FACT-P, a validated 39-item questionnaire evaluated 5 wellbeing domains: physical (PWB, 0-28), social and family (SWB, 0-28), emotional (EWB, 0-24), functional (FWB, 0-28), and prostate specific (PCS, 0-48).
Total FACT-P score (PWB+SWB+EWB+FWB+PCS; 0-156), total FACT-G score (PWB+SWB+EWB+FWB; 0-108), FACT-P trial outcome index (PWB+FWB+PCS; 0-104), and PCS-Pain were calculated. The FACT-P overall score ranges from 0 to 156, higher values indicating a higher HRQL
To control for type I error due to multiple comparisons, a hierarchical testing procedure was applied for the primary and key secondary end points. […] Further tests were stopped once a comparison was found not statistically significant at two-sided alpha level of 0.05. Descriptive statistics for FACT-P and EQ-5D-5L scores were provided for all cycles for which the number of evaluable patients reached ≥20% of the PRO population. For qualitative parameters, proportions of patients with deterioration, no change, and improvement were provided.
The comparison of changes from baseline on PROs was analyzed using a mixed linear repeated measures model where treatment is a fixed effect variable and subject is a random effect variable. Stratification variables were included in the model as covariates as well as the interaction treatment visit. The least square means by treatment group with the corresponding 95% CI obtained from the mixed model were presented graphically. No adjustments for multiplicity were made.
Compliance with the planned assessment schedule was calculated at baseline and for each treatment cycle as the proportion of patients still receiving study treatment at this time point. No formal imputation for missing data was carried out and reasons for missing data were not centrally recorded. FACT-P total score was evaluable when >80% of questions were answered. For individual FACT-P subscales, a score was evaluable when >50% of the questions in the subscale domain were answered. If <50% of the questions were missing in any FACT-P subscale, the subscale score could be imputed by prorated subscale scores using the following formula: Prorated subscale score=[Sum of question scores]×[N of questions in subscale][…][N of questions answered].

[1] = cabazitaxel vs abiraterone or enzalutamide
[2] = cabazitaxel vs abiraterone or enzalutamide, all cycles
[3] = cabazitaxel vs abiraterone or enzalutamide, end of treatment visit

Q: Which results are given for `CO[C@H]1C(=O)[C@]2(C)[C@@H](OC)C[C@H]3OC[C@@]3(OC(C)=O)[C@H]2[C@H](OC(=O)c2ccccc2)[C@]2(O)C[C@H](OC(=O)[C@H](O)[C@@H](NC(=O)OC(C)(C)C)c3ccccc3)C(C)=C1C2(C)C` [Cabazitaxel, 4α-acetoxy-2α-benzoyloxy-5β,20-epoxy-1p-hydroxy-7β,10β-dimethoxy-9-oxo-11-taxen-13α-yl (2R,3S)-3-tert-butoxycarbonylamino-2-hydroxy-3-phenylpropionate]?
A: Deterioration in FACT-P from baseline: 22.2%; Emotional well-being, Kaplan-Meier probability of no deterioration at 3 months (3 months): 91.1; FACT-G total, Kaplan-Meier probability of no deterioration at 3 months (3 months): 82.3; FACT-P total, Kaplan-Meier probability of no deterioration at 3 months (3 months): 86.2; Functional well-being, Kaplan-Meier probability of no deterioration at 3 months (3 months): 73.7; Pain-related subscale, Kaplan-Meier probability of no deterioration at 3 months (3 months): 81.6; Physical well-being, Kaplan-Meier probability of no deterioration at 3 months (3 months): 76.0; Prostate-specific concerns, Kaplan-Meier probability of no deterioration at 3 months (3 months): 83.6; Social or family well-being, Kaplan-Meier probability of no deterioration at 3 months (3 months): 78.7; Trial outcome index, Kaplan-Meier probability of no deterioration at 3 months (3 months): 86.1; FACT-P total, deterioration events (Table 6): 29.6%; Emotional well-being, time to deterioration HR [1]: 0.46**; FACT-G total, time to deterioration HR [1]: 0.71; FACT-P total, time to deterioration HR [1]: 0.72; Functional well-being, time to deterioration HR [1]: 0.81; Pain-related subscale, time to deterioration HR [1]: 0.74; Physical well-being, time to deterioration HR [1]: 0.82; Prostate-specific concerns, time to deterioration HR [1]: 0.68; Social or family well-being, time to deterioration HR [1]: 1.03; Trial outcome index, time to deterioration HR [1]: 0.65; Pain-related subscale score change from baseline, least squares mean difference [2]: +1.12 to +2.26; Social or family well-being change from baseline, mean difference [2]: −0.37 to −2.25; FACT-P total score change from baseline, mean difference [3]: +4.58; Pain-related subscale score change from baseline, mean difference [3]: +0.62; Social or family well-being change from baseline, mean difference [3]: −0.94; FACT-P total score change from baseline, least squares mean difference (cabazitaxel vs abiraterone or enzalutamide, until Cycle 5): +2.67 to +5.21; Emotional well-being, deterioration events (human, in vivo): 16.7%; Emotional well-being, deterioration events n/nT (human, in vivo): 18/108; Emotional well-being, median time to deterioration (human, in vivo): NE (NE-NE); FACT-G total, deterioration events (human, in vivo): 27.8%; FACT-G total, deterioration events n/nT (human, in vivo): 30/108; FACT-G total, median time to deterioration (human, in vivo): 14.8 (8.8-NE) months; FACT-P total, deterioration events n/nT (human, in vivo): 32/108; FACT-P total, median time to deterioration (human, in vivo): 14.8 (6.3-NE) months; Functional well-being, deterioration events (human, in vivo): 36.1%; Functional well-being, deterioration events n/nT (human, in vivo): 39/108; Functional well-being, median time to deterioration (human, in vivo): NE (5.9-NE); Improvement in total FACT-P score from baseline (human, in vivo): 25.0%; Pain-related subscale, deterioration events (human, in vivo): 33.3%; Pain-related subscale, deterioration events n/nT (human, in vivo): 36/108; Pain-related subscale, median time to deterioration (human, in vivo): 10.4 (8.5-NE) months; Physical well-being, deterioration events (human, in vivo): 36.1%; Physical well-being, deterioration events n/nT (human, in vivo): 39/108; Physical well-being, median time to deterioration (human, in vivo): 14.8 (4.9-NE) months; Prostate-specific concerns, deterioration events (human, in vivo): 32.4%; Prostate-specific concerns, deterioration events n/nT (human, in vivo): 35/108; Prostate-specific concerns, median time to deterioration (human, in vivo): 14.8 (9.8-NE) months; Social or family well-being, deterioration events (human, in vivo): 32.4%; Social or family well-being, deterioration events n/nT (human, in vivo): 35/108; Social or family well-being, median time to deterioration (human, in vivo): 14.8 (7.9-14.8) months; Trial outcome index, deterioration events (human, in vivo): 26.9%; Trial outcome index, deterioration events n/nT (human, in vivo): 29/108; Trial outcome index, median time to deterioration (human, in vivo): 14.8 (8.5-NE) months; FACT-P total, median time to deterioration (human, in vivo, listed as cabazitaxel): 14.8 months; Improvement in total FACT-P score from baseline (±10 points, confirmed): 27 patients
